One series deals with HacaT. Put plainly: Toxicity test on cells, HacaT. The conditions noted are these: Homo sapiens, 48 hours of treatment, Hoechst nuclei staining. In kind it is cell-based. Here is the method:
The compounds according to the invention were also tested on the cell lines HuH7, CaCo-2, HCT116, PC3, NCl, HacaT and Fibroblasts.
Operating Procedure: The cells were cultivated according to the ECACC recommendations. The toxicity test of the compounds on these cells was conducted as follows: 4×10^3 cells/well were sown in 96 wells. 24 hours after sowing the cells, the cells were exposed to increased concentrations of the compounds (0.1 μM-0.3 μM-0.9 μM-2.7 μM-8.3 μM-25 μM). After 48 hours of treatment, the cells were washed in PBS and bound in a cold ethanol/acetic acid (90/5) mixture for 20 minutes. Next, the nuclei were coloured with […] (Sigma). The acquisition of images and the analysis was carried out by means of a reader Cellomics ArrayScan VTI/HCS (Thermo Scientific).

The test system of the next series is HCT116. Put plainly: Toxicity test on cells, HCT116. In kind it is cell-based. The note with it: Homo sapiens, HCT-116; 48 hours of treatment, Hoechst nuclei staining. The method in brief: (§1)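 Cells seeded at 4×10^3/well, exposed 24 h later to compounds at 0.1–25 μM (0.1, 0.3, 0.9, 2.7, 8.3, 25 μM) for 48 h. Fixed in cold ethanol/acetic acid (90/5), nuclei stained with […], and counted by automated high-content imaging.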

The test system of another series is PC3. Put plainly: Toxicity test on cells, PC3. The class given is cell-based. The note with it: Homo sapiens, PC-3; 48 hours of treatment, Hoechst nuclei staining. Put shortly:
as §1

A further series relates to Fibroblasts. Put plainly: Toxicity test on cells, Fibroblasts. The class given is cell-based. The note with it: Fibroblast; 48 hours of treatment, Hoechst nuclei staining. The method in brief: as §1
The next series relates to CaCo2. Put plainly: Toxicity test on cells, CaCo2. In kind it is cell-based. The note with it: Homo sapiens, Caco-2; 48 hours of treatment, Hoechst nuclei staining. Put shortly:
as §1

The next series concerns the target PI3Kα (Homo sapiens, UniProt P42336). Put plainly: PI3Kα kinase activity, Adapta TR-FRET ADP detection. The class given is biochemical. The conditions noted are these: purified p110α/p85α heterodimer, triplicate; read-out: Kinases IC50 PI3Kα.
A further series concerns NCl. Put plainly: Toxicity test on cells, NCl. The class given is cell-based. The note with it: 48 hours of treatment, Hoechst nuclei staining. The method in brief: as §1
In another series the test system is HUH7. Put plainly: Toxicity test on cells, HUH7. The conditions noted are these: Homo sapiens, Huh-7; 48 hours of treatment, Hoechst nuclei staining. In kind it is cell-based. Put shortly: as §1
The subject of the next series is MDA. Put plainly: Toxicity test on cells, MDA. The conditions noted are these: 48 hours of treatment, Hoechst nuclei staining. In kind it is cell-based.
The target of the next series is PI3Kδ (Homo sapiens, UniProt O00329). Put plainly: PI3Kδ kinase activity, Adapta TR-FRET ADP detection. In kind it is biochemical. The note with it: purified p110δ/p85α heterodimer; read-out: Kinases IC50 PI3Kδ. A general note: Time-resolved FRET reads energy transfer from a long-lived donor to a nearby acceptor.
PI3Kδ, sequence (O00329 whole entry): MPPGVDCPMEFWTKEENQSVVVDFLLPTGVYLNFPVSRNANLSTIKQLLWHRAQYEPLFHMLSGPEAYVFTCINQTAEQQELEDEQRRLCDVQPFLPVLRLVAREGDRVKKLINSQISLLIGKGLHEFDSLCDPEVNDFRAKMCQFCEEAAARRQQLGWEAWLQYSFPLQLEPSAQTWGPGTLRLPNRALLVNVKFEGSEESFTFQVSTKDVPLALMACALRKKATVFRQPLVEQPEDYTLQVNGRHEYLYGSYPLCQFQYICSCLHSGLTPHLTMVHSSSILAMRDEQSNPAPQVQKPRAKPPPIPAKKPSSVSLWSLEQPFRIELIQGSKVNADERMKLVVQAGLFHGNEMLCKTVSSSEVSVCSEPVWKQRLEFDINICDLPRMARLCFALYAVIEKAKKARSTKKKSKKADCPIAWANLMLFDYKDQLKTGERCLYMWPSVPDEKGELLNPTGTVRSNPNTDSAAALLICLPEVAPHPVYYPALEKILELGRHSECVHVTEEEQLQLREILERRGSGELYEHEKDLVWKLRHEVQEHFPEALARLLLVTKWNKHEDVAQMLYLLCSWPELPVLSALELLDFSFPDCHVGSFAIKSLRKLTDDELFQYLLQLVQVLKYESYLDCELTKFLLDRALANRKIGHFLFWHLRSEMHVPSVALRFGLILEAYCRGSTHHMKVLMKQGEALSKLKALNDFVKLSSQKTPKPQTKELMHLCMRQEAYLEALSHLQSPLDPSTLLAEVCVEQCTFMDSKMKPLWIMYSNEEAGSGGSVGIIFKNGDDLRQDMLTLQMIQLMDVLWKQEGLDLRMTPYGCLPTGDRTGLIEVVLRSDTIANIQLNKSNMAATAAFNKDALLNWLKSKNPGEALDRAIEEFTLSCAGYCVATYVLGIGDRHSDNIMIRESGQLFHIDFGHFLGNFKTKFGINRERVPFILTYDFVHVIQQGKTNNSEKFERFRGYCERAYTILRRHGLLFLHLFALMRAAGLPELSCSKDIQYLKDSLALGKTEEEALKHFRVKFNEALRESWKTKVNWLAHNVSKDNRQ
PI3Kδ, sequence (P27986 whole entry partner): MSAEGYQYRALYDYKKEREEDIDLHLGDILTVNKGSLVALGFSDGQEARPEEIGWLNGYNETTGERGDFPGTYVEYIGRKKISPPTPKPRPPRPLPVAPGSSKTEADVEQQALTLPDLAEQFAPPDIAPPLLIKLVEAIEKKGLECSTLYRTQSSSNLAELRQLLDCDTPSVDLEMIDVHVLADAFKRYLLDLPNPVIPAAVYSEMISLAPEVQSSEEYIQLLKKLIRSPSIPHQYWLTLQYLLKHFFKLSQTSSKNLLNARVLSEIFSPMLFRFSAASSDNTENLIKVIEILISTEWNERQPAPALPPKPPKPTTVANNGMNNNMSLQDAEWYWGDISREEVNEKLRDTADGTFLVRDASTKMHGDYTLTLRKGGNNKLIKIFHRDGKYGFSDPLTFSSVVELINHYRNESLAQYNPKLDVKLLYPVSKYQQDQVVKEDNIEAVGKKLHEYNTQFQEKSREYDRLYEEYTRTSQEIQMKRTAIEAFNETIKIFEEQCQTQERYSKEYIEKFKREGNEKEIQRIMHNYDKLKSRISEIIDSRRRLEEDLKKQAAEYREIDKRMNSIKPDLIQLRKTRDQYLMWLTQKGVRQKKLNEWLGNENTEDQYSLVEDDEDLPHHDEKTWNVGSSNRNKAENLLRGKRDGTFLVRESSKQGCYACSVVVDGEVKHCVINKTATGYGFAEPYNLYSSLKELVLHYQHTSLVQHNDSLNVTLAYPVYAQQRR
A further series concerns the target PI3Kγ (Homo sapiens, UniProt P48736). Put plainly: PI3Kγ kinase activity, Adapta TR-FRET ADP detection. In kind it is biochemical. The conditions noted are these: p110γ catalytic subunit; read-out: Kinases IC50 PI3Kγ.
The target of another series is mTOR (Homo sapiens, UniProt P42345). Put plainly: mTOR kinase activity, LANCE Ultra TR-FRET. In kind it is biochemical. The conditions noted are these: truncated mTOR protein, triplicate; read-out: Kinases IC50 mTOR. Put shortly:
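Truncated mTOR (aa 1-1359), 40 μM ATP and 200 μM unphosphorylated peptide (solution concentrations before mixing) in HEPES pH 7.5 with MnCl2/MgCl2, 120 min at room temperature, triplicates. Stopped with EDTA; Eu-labelled anti-phosphopeptide antibody, TR-FRET read at 665 nm; IC50 taken as 50% signal change.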

The results in this text go back to patent publication US10202372B2, “Trisubstituted pyrido[2,3-D]pyrimidines, methods for preparing same and therapeutic uses thereof” (CENTRE NATIONAL DE LA RECHERCHE SCIENTIFIQUE (C.N.R.S), priority 2012, dated 2019).

Structures are written as SMILES.

PI3Kγ, sequence (P48736 whole entry, the tested form may be a part): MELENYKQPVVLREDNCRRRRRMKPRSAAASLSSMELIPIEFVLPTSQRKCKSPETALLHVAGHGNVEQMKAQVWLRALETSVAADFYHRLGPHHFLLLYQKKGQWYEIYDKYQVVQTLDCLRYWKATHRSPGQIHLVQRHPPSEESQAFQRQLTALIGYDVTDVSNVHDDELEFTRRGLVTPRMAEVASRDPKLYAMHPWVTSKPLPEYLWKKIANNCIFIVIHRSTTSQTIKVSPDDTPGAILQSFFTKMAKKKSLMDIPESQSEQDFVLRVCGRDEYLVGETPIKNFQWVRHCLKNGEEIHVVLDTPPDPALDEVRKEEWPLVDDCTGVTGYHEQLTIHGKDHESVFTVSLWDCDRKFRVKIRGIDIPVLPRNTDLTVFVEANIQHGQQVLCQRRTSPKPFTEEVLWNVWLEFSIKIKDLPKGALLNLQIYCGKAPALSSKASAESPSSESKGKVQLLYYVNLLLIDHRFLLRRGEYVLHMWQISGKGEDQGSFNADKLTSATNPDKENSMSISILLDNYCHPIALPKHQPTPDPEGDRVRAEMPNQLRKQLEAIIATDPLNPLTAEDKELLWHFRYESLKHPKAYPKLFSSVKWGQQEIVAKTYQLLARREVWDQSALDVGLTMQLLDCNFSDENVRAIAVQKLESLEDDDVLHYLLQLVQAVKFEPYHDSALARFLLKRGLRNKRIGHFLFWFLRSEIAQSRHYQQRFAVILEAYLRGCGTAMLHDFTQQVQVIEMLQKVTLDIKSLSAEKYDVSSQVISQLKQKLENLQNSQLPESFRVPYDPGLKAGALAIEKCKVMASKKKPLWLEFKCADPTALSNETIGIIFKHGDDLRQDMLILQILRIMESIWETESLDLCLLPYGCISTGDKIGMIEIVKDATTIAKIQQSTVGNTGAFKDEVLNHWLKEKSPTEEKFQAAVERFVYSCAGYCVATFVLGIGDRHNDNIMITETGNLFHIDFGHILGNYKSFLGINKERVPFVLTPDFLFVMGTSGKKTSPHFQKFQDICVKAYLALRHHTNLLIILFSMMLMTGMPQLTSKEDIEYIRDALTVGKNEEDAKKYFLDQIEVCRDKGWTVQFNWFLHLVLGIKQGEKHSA
mTOR, sequence (P42345 1360-2549): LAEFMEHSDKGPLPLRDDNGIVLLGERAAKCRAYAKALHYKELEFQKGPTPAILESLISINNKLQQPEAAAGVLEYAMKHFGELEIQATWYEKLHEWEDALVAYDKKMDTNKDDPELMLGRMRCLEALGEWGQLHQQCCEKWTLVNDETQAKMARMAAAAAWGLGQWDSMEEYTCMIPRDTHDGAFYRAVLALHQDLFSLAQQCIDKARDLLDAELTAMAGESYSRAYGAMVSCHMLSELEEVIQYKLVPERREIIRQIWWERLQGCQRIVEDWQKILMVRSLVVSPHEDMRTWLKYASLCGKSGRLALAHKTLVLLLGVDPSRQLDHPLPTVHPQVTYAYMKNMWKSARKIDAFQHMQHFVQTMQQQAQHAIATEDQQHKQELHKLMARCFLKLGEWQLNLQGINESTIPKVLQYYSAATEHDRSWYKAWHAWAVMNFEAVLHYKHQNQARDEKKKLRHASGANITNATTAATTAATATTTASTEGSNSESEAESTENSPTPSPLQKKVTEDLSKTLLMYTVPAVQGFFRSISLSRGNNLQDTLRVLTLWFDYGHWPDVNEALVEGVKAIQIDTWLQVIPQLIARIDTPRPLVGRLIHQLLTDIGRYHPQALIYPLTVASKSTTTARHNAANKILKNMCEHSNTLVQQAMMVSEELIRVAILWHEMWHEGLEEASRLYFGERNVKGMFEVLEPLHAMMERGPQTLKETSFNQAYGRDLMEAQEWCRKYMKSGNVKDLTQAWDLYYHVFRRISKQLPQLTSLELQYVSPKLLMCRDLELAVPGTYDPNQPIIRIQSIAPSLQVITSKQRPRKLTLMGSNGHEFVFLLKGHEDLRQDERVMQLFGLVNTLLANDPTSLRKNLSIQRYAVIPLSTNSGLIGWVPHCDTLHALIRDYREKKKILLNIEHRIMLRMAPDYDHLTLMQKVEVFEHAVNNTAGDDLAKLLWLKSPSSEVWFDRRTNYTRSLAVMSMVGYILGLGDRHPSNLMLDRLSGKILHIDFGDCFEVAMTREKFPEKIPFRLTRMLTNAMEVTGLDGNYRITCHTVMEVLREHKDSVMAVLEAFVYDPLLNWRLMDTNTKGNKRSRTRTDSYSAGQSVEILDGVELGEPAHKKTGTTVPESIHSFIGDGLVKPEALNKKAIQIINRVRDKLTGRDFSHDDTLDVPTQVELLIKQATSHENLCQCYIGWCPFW

Take `O=C(Nc1ccc(CO)cc1)Nc1ccc(-c2nc(N3CCOCC3)c3ncc(CN4CCOCC4)cc3n2)cc1` [Compound 78, 1-[4-(hydroxymethyl)phenyl]-3-{4-[4-(morpholin-4-yl)-7-(morpholin-4 ylmethyl)pyrido[3,2-d]pyrimidin-2-yl]phenyl}urea]: the melting point – broadly, the temperature of the solid-liquid transition – was above 260 °C. For the same molecule, the IC50 (as a rule, the point on the concentration scale where inhibition reaches its midpoint) in the series on HacaT is 2 µM. The molecule also registered an IC50 in the series with HCT116 of 1 µM. 2 µM corresponded to half-maximal inhibition in the series on PC3 (IC50). Besides, the IC50 with Fibroblasts was above 25 µM. This molecule gave an IC50 with CaCo2 of 12 µM. Besides, the IC50 at PI3Kα stood at 0.023 µM. In the series with NCl, this molecule registered an IC50 of 3 µM. For the same molecule, in the series with HUH7, the IC50 was 2 µM. Further, the IC50 in the series on MDA is 3 µM.

`COc1ccc(-c2nc(N3CCOCC3)c3ncc(Cl)cc3n2)cc1` [Compound 9, 4-(7-chloro-2-(4-methoxyphenyl)pyrido[3,2-d]pyrimidin-4-yl)morpholine] returned a melting point of 176 °C. Moreover, the IC50 at PI3Kδ came out at 363 nM. In addition, in the series on HacaT, the IC50 is above 25 µM. This molecule gave an IC50 in the series with HCT116 above 25 µM. The IC50 with PC3 was above 25 µM. Further, the IC50 in the series on Fibroblasts is above 25 µM. Besides, in the series with CaCo2, the IC50 was above 25 µM. The IC50 on PI3Kγ was determined as 3.1 µM. Besides, the IC50 at PI3Kα is 6.2 µM. Further, the IC50 with NCl is above 25 µM. For the same molecule, the IC50 on mTOR was above 50000 nM. The molecule also displayed an IC50 in the series on HUH7 above 25 µM. This molecule showed an IC50 with MDA above 25 µM.

For `C=Cc1cnc2c(N3CCOCC3)nc(-c3ccc(O)cc3)nc2c1` [Compound 16, 4-(4-Morpholino-7-vinylpyrido[3,2-d]pyrimidin-2-yl)phenol], the melting point is above 260 °C. Also, on PI3Kδ, the IC50 is 2100 nM. In the series with HacaT, the IC50 was above 25 µM. Besides, the IC50 in the series on HCT116 was above 25 µM. Besides, the IC50 with PC3 was above 25 µM. The IC50 with Fibroblasts is above 25 µM. Also, the IC50 in the series on CaCo2 was above 25 µM. Also, on PI3Kγ, the IC50 was determined as 1.7 µM. Further, the IC50 at PI3Kα was determined as 1.6 µM. Further, in the series on NCl, the IC50 is above 25 µM. Moreover, the IC50 on mTOR turned out to be 370 nM. Moreover, the IC50 with HUH7 is above 25 µM. The same molecule had an IC50 with MDA above 25 µM.

As for `Oc1ccc(-c2nc(N3CCOCC3)c3ncc(Cl)cc3n2)cc1` [Compound 7, 4-(7-Chloro-4-morpholinopyrido[3,2-d]pyrimidin-2-yl)phenol], the melting point lay in the range of 253 to 254 °C. For the same molecule, on PI3Kδ, the IC50 was determined as 1500 nM. Moreover, the IC50 with HCT116 was above 25 µM. This molecule also returned an IC50 with PC3 of 25 µM. In the series with Fibroblasts, this molecule showed an IC50 above 25 µM. In the series on CaCo2, this molecule showed an IC50 of 25 µM. Besides, the IC50 at PI3Kγ is above 50 µM. Also, the IC50 on PI3Kα was determined as 15.2 µM. The molecule further yielded an IC50 in the series with NCl above 25 µM. For the same molecule, the IC50 on mTOR came to 184 nM. This molecule also returned an IC50 with HUH7 of 25 µM. This molecule also had an IC50 in the series on MDA of 25 µM.
